In patent publication US9676792B2, “Pyrimido-diazepinone compounds and methods of treating disorders” (Dana-Farber Cancer Institute, Inc., priority 2013, dated 2017):
Where “and” joins values, the source holds several entries; their conditions need not be identical. Equal entries are not always repeated. Where two headings read alike, the source gives them in different places.

Legend:
EphB2 [1] = biological target: T1, EphB2 (Homo sapiens (Human), UniProt P29323); assay: ActivX kinase profiling; type: binding
T1 sequence (P29323 19-1055): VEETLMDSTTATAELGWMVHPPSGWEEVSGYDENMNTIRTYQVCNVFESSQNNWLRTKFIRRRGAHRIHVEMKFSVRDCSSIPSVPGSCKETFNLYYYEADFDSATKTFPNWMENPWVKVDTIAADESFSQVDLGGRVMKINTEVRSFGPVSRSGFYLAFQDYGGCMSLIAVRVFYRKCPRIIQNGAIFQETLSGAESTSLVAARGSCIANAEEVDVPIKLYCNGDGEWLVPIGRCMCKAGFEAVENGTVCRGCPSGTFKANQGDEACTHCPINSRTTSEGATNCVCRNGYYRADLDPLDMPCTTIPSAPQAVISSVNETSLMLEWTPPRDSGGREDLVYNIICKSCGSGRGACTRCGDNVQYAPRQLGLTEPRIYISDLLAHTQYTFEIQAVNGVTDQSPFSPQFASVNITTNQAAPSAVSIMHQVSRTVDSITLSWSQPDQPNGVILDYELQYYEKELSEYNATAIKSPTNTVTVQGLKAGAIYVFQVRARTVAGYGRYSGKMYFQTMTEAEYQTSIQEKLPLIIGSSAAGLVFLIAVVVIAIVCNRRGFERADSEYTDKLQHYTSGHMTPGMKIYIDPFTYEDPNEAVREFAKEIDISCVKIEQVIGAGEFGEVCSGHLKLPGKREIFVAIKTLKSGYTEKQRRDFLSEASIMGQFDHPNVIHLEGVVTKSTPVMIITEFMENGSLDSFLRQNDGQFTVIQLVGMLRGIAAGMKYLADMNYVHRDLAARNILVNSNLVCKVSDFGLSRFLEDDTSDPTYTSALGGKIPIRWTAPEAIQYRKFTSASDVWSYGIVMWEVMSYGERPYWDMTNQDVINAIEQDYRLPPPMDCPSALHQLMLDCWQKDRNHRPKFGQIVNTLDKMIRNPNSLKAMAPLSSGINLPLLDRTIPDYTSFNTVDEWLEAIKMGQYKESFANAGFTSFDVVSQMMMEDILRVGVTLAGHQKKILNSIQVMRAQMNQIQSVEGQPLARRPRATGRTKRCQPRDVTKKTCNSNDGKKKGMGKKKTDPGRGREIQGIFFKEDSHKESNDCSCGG

panel of 442 kinases [2] = conditions: cited from earlier work
EphA7 = EphA7 (Homo sapiens (Human), UniProt Q15375); assay: Ambit kinase profiling; type: binding
EPHA3 = EPHA3 (Homo sapiens (Human), UniProt P29320); assay: Ambit kinase profiling; type: binding
EPHB3 = EPHB3 (Homo sapiens (Human), UniProt P54753); assay: Ambit kinase profiling; type: binding
EPHB1 = EPHB1 (Homo sapiens (Human), UniProt P54762); assay: Ambit kinase profiling; type: binding
EPHB6 = EPHB6 (Homo sapiens (Human), UniProt O15197); assay: Ambit kinase profiling; type: binding
EphB2 [3] = biological target: T1, EphB2; assay: Ambit kinase profiling; type: binding
EPHA5 = EPHA5 (Homo sapiens (Human), UniProt P54756); assay: Ambit kinase profiling; type: binding
EphA2 [4] = biological target: T2, EphA2 (Homo sapiens (Human), UniProt P29317); assay: Ambit kinase profiling; type: binding
T2 sequence (P29317 24-976): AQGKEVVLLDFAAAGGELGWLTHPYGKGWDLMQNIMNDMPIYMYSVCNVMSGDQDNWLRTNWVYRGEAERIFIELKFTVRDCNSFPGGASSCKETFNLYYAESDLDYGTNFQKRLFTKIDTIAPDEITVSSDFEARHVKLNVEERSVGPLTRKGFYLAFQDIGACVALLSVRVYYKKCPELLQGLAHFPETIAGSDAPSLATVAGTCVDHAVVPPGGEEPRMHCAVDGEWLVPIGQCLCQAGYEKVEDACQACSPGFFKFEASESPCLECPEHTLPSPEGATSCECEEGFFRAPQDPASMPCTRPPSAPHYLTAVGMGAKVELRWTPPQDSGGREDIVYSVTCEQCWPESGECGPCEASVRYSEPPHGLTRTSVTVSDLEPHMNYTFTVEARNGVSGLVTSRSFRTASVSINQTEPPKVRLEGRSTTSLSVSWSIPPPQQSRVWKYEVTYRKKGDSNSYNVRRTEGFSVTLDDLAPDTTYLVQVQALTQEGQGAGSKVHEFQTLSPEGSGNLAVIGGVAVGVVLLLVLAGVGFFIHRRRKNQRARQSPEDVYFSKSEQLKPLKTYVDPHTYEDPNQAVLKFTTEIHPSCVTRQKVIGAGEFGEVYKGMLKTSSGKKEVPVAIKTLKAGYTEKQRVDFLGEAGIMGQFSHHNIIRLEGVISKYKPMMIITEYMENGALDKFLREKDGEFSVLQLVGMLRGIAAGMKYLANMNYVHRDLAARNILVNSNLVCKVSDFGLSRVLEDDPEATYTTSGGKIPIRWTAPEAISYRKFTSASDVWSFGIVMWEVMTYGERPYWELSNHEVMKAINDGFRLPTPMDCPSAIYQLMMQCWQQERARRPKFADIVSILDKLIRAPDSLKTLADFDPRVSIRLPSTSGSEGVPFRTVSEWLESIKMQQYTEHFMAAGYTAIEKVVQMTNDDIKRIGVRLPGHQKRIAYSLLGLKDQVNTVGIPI

EphA1 = EphA1 (Homo sapiens (Human), UniProt P21709); assay: Ambit kinase profiling; type: binding
Sequence of EphA1 (P21709 26-976): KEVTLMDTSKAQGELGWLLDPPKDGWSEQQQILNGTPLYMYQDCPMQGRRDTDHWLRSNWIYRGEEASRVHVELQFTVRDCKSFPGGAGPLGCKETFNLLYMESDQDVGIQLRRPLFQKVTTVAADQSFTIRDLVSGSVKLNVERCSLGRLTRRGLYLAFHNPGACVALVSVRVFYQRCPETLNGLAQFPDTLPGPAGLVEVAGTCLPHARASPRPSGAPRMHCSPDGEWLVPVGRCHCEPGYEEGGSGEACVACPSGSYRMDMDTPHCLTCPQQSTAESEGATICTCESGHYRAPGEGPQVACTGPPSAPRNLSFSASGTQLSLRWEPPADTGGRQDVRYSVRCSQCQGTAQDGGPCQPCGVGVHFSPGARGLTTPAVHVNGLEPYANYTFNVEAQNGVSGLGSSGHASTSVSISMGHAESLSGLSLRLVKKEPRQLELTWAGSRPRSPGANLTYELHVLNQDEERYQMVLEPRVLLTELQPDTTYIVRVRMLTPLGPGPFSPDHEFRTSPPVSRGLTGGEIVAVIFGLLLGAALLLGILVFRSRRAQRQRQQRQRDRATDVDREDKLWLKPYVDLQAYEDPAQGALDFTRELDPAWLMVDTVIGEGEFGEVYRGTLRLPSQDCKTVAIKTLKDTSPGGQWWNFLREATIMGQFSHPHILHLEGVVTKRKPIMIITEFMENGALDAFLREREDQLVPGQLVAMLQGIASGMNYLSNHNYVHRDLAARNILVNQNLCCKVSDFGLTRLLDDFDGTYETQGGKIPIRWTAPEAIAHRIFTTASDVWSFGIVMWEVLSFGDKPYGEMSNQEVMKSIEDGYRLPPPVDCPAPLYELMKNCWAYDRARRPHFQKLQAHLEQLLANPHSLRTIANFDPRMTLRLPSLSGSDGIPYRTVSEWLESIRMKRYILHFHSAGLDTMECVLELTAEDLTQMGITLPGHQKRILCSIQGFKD

EphB4 = EphB4 (Homo sapiens (Human), UniProt P54760); assay: Ambit kinase profiling; type: binding
EPHA4 = EPHA4 (Homo sapiens (Human), UniProt P54764); assay: Ambit kinase profiling; type: binding
Sequence of EPHA4 (P54764 20-986): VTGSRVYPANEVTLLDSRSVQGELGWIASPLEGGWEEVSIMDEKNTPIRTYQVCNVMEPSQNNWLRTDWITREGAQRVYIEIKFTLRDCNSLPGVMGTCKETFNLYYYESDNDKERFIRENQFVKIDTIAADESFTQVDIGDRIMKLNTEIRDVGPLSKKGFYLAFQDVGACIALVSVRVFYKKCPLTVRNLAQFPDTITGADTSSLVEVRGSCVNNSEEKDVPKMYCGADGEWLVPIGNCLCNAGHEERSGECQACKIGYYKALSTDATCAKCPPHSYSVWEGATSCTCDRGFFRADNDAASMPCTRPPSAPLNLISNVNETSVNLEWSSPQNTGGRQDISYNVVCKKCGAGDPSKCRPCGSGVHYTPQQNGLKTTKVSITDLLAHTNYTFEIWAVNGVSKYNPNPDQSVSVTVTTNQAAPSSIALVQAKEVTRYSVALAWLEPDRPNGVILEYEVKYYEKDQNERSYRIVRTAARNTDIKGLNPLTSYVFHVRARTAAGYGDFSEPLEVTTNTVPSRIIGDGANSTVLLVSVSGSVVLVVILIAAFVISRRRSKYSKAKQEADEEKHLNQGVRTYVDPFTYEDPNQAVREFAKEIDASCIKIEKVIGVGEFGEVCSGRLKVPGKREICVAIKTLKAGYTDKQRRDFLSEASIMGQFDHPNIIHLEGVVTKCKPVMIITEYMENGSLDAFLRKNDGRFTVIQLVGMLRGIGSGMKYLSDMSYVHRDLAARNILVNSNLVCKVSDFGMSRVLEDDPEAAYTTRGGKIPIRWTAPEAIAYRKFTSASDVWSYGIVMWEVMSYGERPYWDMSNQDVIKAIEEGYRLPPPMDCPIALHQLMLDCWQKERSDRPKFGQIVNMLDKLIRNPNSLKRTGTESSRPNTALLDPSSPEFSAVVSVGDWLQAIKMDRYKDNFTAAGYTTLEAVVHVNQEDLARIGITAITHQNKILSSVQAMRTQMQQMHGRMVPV

EPHA8 = assay: Ambit kinase profiling; type: binding
panel of 442 kinases [5] = assay: KINOMEscan selectivity profiling; type: binding; conditions: 10 μM
Description: We assessed the selectivity of this scaffold using the KINOMEscan methodology across a near comprehensive panel of 442 kinases. […]

ERK5 [6] = biological target: T3, ERK5 (Homo sapiens (Human), UniProt Q13164); assay: KiNativ chemical proteomics profiling in HeLa and PC3 cell lysates; type: binding; conditions: read-out: ERK5 inhibition (KiNativ)
T3 sequence (Q13164 2-816 limits assumed): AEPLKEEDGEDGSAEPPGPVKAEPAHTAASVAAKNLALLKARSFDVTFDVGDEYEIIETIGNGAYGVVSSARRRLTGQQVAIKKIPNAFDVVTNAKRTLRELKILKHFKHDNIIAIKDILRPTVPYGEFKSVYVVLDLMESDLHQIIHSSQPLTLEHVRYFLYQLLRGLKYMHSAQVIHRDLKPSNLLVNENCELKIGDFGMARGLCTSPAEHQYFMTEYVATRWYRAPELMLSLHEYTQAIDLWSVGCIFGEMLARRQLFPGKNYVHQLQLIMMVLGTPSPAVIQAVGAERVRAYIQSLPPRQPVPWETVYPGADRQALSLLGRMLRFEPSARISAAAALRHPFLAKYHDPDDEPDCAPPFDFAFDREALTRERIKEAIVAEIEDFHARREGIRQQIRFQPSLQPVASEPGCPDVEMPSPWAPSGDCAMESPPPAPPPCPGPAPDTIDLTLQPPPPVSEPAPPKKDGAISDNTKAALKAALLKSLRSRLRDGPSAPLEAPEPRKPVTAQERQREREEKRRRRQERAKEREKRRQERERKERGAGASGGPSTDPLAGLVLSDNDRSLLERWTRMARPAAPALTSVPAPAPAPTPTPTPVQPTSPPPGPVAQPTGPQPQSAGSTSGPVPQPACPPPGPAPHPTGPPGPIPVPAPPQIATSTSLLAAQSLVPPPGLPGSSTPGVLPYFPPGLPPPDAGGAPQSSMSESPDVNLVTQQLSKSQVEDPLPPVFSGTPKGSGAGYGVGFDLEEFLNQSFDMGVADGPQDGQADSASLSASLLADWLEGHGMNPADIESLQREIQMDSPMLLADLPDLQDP
Description: Compared with our previously reported ERK5 inhibitor, XMD8-92 (11, S10=0.012, 5/402), compound 26 represents a further improvement in selectivity. […] Compounds 25 and 26 were also profiled against selected panels of kinases in HeLa and PC3 cell lysates using a chemical proteomics approach, KiNativ.

LRRK2 = LRRK2 (Homo sapiens (Human), UniProt Q5S007); conditions: cited from earlier work
ERK5 [7] = biological target: T3, ERK5; conditions: cited from earlier work
EphA2 [8] = biological target: T2, EphA2; assay: In vitro EphA2 kinase assay, Invitrogen EphA2 Z'-LYTE activity assay; type: biochemical
Description: Example 13: In Vitro EphA2 Kinase Assay—Invitrogen EphA2 Z′-LYTE Activity Assay
EphA2 kinase assays were performed according to the methods described in Z′-LYTE® Screening Protocol and Assay Conditions at the Life Technologies website (available at http://www.invitrogen.com).

Q: With `COc1cc(C(=O)N2CCC(N3CCN(C)CC3)CC2)ccc1Nc1ncc2c(n1)-c1ccccc1N(Cc1ccccc1Cl)C(=O)N2C` [XMD16-123-1] as the compound, how does the “ActivX EphB2” value (EphB2 [1]) read?
A: The value was 2.5.

Q: With XMD8-92 as the compound, how does the “KINOMEscan selectivity score S10” value (panel of 442 kinases [2]; previously reported, 5/402 kinases) read?
A: The value was 0.012.

Q: With `O=C1Nc2cnc(Nc3ccc(N4CCC(O)CC4)cc3)nc2-c2ccccc2N1C1CCCC1` [AB-1-17] as the compound, how does the “ActivX EphB2” value (EphB2 [1]) read?
A: The value was 21.5.

Q: With `CN1C(=O)N(Cc2ccccc2Cl)c2ccccc2-c2nc(Nc3ccc(N4CCC(O)CC4)cc3)ncc21` [XMD16-122-1] as the compound, how does the “ActivX EphB2” value (EphB2 [1]) read?
A: Its value is −13.

Q: For `COc1cc(N2CCN(C)CC2)ccc1Nc1ncc2c(n1)-c1ccccc1N(C1CCOCC1)C(=O)N2` [AB-1-16], which “ActivX EphB2” value (EphB2 [1]) is on record?
A: The value was 7.

Q: Which results are given for `CN1C(=O)N(C)c2cnc(Nc3ccc(N4CCC(O)CC4)cc3)nc2-c2ccccc21` [XMD16-117]?
A: Ambit EPHA7 (EphA7): 100; Ambit EPHA3 (EPHA3): 47; Ambit EPHB3 (EPHB3): 93; Ambit EPHB1 (EPHB1): 91; Ambit EPHB6 (EPHB6): 20; Ambit EPHB2 (EphB2 [3]): 100; Ambit EPHA5 (EPHA5): 91; ActivX EphB2 (EphB2 [1]): 19.8; Ambit EPHA2 (EphA2 [4]): 100; Ambit EPHA1 (EphA1): 69; Ambit EPHB4 (EphB4): 91; Ambit EPHA4 (EPHA4): 84; Ambit EPHA8 (EPHA8): 92 and 100

Q: Which “ActivX EphB2” value (EphB2 [1]) does the source give for `O=C1Nc2cnc(Nc3ccc(N4CCC(O)CC4)cc3)nc2-c2ccccc2N1Cc1ccccc1Cl` [XMD16-101-1] here?
A: The value was 6.1.

Q: Which “ActivX EphB2” value (EphB2 [1]) does the source give for `COc1cc(C(=O)N2CCC(N3CCN(C)CC3)CC2)ccc1Nc1ncc2c(n1)-c1ccccc1N(Cc1ccccc1C)C(=O)N2` [XMD16-121] here?
A: Its value is 12.2.

Q: For `COc1cc(C(=O)N2CCC(N3CCN(C)CC3)CC2)ccc1Nc1ncc2c(n1)N(C)c1ccccc1C(=O)N2C` [LRRK2-IN-1], which “KINOMEscan selectivity score S10” value (panel of 442 kinases [2]; previous LRRK2 inhibitor, 16/442) is on record?
A: Its value is 0.036.

Q: With `O=C1Nc2ccccc2-c2nc(Nc3ccc(N4CCC(O)CC4)cc3)ncc2N1` [XMD16-95] as the compound, how does the “ActivX EphB2” value (EphB2 [1]) read?
A: Its value is 97.2.

Q: Which results are given for `COc1cc(C(=O)N2CCC(N3CCN(C)CC3)CC2)ccc1Nc1ncc2c(n1)N(C1CCCC1)c1ccccc1C(=O)N2C` [Compound 25]?
A: KINOMEscan selectivity score S10 (panel of 442 kinases [5]): 0.018; inhibition at 10 µM (ERK5 [6]): > 90%

Q: Which “ActivX EphB2” value (EphB2 [1]) does the source give for `COc1cc(N2CCN(C)CC2)ccc1Nc1ncc2c(n1)-c1ccccc1N(C1CCCC1)C(=O)N2` [AB-1-15] here?
A: Its value is 5.2.

Q: Which “ActivX EphB2” value (EphB2 [1]) does the source give for `CN1C(=O)N(C2CCCC2)c2ccccc2-c2nc(Nc3ccc(N4CCC(O)CC4)cc3)ncc21` [AB-1-24] here?
A: Its value is 6.8.

Q: With `O=C(Nc1cccnc1)c1cc(-c2ccnc(F)c2)ccc1OCc1ccccc1` [GSK2578215A, 2-arylmethyloxy-5-subtitutent-N-arylbenzamide] as the compound, how does the “LRRK2 inhibition as reported” value (LRRK2) read?
A: The value was “potent LRRK2 inhibitors”.

Q: And the “ERK5 inhibition as reported” value (ERK5 [7])?
A: The value was “do not inhibit ERK5”.

Q: For `COc1cc(C(=O)N2CCC(N3CCN(C)CC3)CC2)ccc1Nc1ncc2c(n1)-c1ccccc1NC(=O)N2` [XMD16-120], which “ActivX EphB2” value (EphB2 [1]) is on record?
A: The value was 60.1.

Q: Which results are given for `COc1cc(C(=O)N2CCC(N3CCN(C)CC3)CC2)ccc1Nc1ncc2c(n1)-c1ccccc1N(C1CCOCC1)C(=O)N2` [XMD16-128]?
A: EphA2 Activity (% Inhibition at 10 micromolar) (EphA2 [8]): −5.1% and −8.2%; ActivX EphB2 (EphB2 [1]): 4.5

Q: Which “EphA2 Activity (% Inhibition at 10 micromolar)” value (EphA2 [8]) does the source give for `COc1cc(C(=O)N2CCC(N3CCN(C)CC3)CC2)ccc1Nc1ncc2c(n1)-c1ccccc1N(C1CCCC1)C(=O)N2` [XMD16-127] here?
A: Its value is −1.1% and −10.5%.

Q: What about the “ActivX EphB2” value (EphB2 [1]) of the same compound?
A: The value was 2.

Q: Which “ActivX EphB2” value (EphB2 [1]) does the source give for `COc1cc(C(=O)N2CCC(N3CCN(C)CC3)CC2)ccc1Nc1ncc2c(n1)-c1ccccc1N(Cc1ccccc1C)C(=O)N2C` [XMD16-125] here?
A: Its value is 0.9.

Q: Which results are given for `CNc1nc(Nc2ccc(C(=O)N3CCOCC3)cc2OC)ncc1Cl` [HG-10-102-01, (4-((5-chloro-4-(methylamino)pyrimidin-2-yl)amino)-3-methoxyphenyl)(morpholino)methanone]?
A: LRRK2 inhibition as reported (LRRK2): potent LRRK2 inhibitors; ERK5 inhibition as reported (ERK5 [7]): do not inhibit ERK5

Q: With `CN1C(=O)N(Cc2c(Cl)cccc2Cl)c2ccccc2-c2nc(Nc3ccc(N4CCC(O)CC4)cc3)ncc21` [XMD16-122-2] as the compound, how does the “ActivX EphB2” value (EphB2 [1]) read?
A: Its value is −5.5.

Q: For `COc1cc(C(=O)N2CCC(N3CCN(C)CC3)CC2)ccc1Nc1ncc2c(n1)-c1ccccc1N(C)C(=O)N2C` [XMD16-118], which “ActivX EphB2” value (EphB2 [1]) is on record?
A: The value was −20.9.

Q: Which “ActivX EphB2” value (EphB2 [1]) does the source give for `O=C1Nc2cnc(Nc3ccc(N4CCC(O)CC4)cc3)nc2-c2ccccc2N1Cc1c(Cl)cccc1Cl` [XMD16-101-2] here?
A: Its value is 0.6.

Q: What does the source list for `Cc1ccccc1CN1C(=O)N(C)c2cnc(Nc3ccc(N4CCC(O)CC4)cc3)nc2-c2ccccc21` [XMD16-124]?
A: Ambit EPHA7 (EphA7): 100; Ambit EPHA3 (EPHA3): 77; Ambit EPHB3 (EPHB3): 93; Ambit EPHB1 (EPHB1): 84; Ambit EPHB6 (EPHB6): 78; Ambit EPHB2 (EphB2 [3]): 100; Ambit EPHA5 (EPHA5): 90; ActivX EphB2 (EphB2 [1]): 18.3; Ambit EPHA2 (EphA2 [4]): 93; Ambit EPHA1 (EphA1): 81; Ambit EPHB4 (EphB4): 99; Ambit EPHA4 (EPHA4): 89; Ambit EPHA8 (EPHA8): 100
